Key:
Assay type in all cases: in vivo
[1] = system: Japanese bulrush (Scirpus juncoides Roxb.); experiment: Test Example 1: herbicidal effect by soil application to paddy field; details: paddy field soil application; active ingredient 1,000 g per 1 hectare; wettable powder added dropwise to water surface the day after sowing; examined on the 21st day after application
In short: (§1)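 Plants were sown in flooded (3 cm) paddy soil and evaluated for herbicidal effect 21 days after soil application in a greenhouse.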

[2] = system: early watergrass (Echinochloa oryzicola Vasing); experiment: as above; details: paddy field soil application; active ingredient 1,000 g per 1 hectare; wettable powder added dropwise to water surface the day after sowing; examined on the 21st day after application
In short: as §1

[3] = system: heartshape false pickerelweed (Monochoria vaginalis (Burm.f.) C.Presl); experiment: as above; details: paddy field soil application; active ingredient 1,000 g per 1 hectare; wettable powder added dropwise to water surface the day after sowing; examined on the 21st day after application
In short: as §1

[4] = system: barnyardgrass (Echinochloa crus-galli (L.) P. Beauv. var. crus-galli); experiment: Test Example 2: herbicidal effect by soil application to upland field; details: soil surface spray, upland field soil, 1,000 g active ingredient per hectare, 21st day after application
In short: (§2)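 Dose was 1,000 g active ingredient per hectare, applied as a wettable powder diluted in water and sprayed evenly over the soil of sown, covered pots at a 1,000 L/ha equivalent. Effect was judged by a standard scale 21 d later under greenhouse conditions.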

[5] = system: green foxtail (Setaria viridis (L.) P. Beauv.); experiment: as above; details: soil surface spray, upland field soil, 1,000 g active ingredient per hectare, 21st day after application
In short: as §2

[6] = system: slender amaranth (Amaranthus viridis L.); experiment: as above; details: soil surface spray, upland field soil, 1,000 g active ingredient per hectare, 21st day after application
In short: as §2

[7] = system: velvetleaf (Abutilon theophrasti medicus); experiment: as above; details: soil surface spray, upland field soil, 1,000 g active ingredient per hectare, 21st day after application
In short: as §2

[8] = system: barnyardgrass (Echinochloa crus-galli (L.) P. Beauv. var. crus-galli); experiment: Test Example 3: herbicidal effect by application to upland field (foliage treatment); details: 14th day after application; for herbicidal effect, Barnyardgrass: foliage treatment, 1,000 g active ingredient per 1 hectare, greenhouse; for herbicidal effect (index), Barnyardgrass: foliage treatment, plants grown two weeks, 1,000 g active ingredient per hectare
In short: (§3)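 Field-soil pots sown with the four weed species and grown two weeks in a greenhouse, then sprayed over the whole plant with wettable powder in water at 1,000 g active ingredient/ha in 1,000 L/ha. Herbicidal effect scored against a rating standard 14 days after treatment.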

[9] = system: green foxtail (Setaria viridis (L.) P. Beauv.); experiment: as above; details: 14th day after application; for herbicidal effect, Green Foxtail: foliage treatment, 1,000 g active ingredient per 1 hectare, greenhouse; for herbicidal effect (index), Green Foxtail: foliage treatment, plants grown two weeks, 1,000 g active ingredient per hectare
In short: as §3

[10] = system: slender amaranth (Amaranthus viridis L.); experiment: as above; details: 14th day after application; for herbicidal effect, Slender Amaranth: foliage treatment, 1,000 g active ingredient per 1 hectare, greenhouse; for herbicidal effect (index), Slender Amaranth: foliage treatment, plants grown two weeks, 1,000 g active ingredient per hectare
In short: as §3

[11] = system: velvetleaf (Abutilon theophrasti medicus); experiment: as above; details: 14th day after application; for herbicidal effect, Velvetleaf: foliage treatment, 1,000 g active ingredient per 1 hectare, greenhouse; for herbicidal effect (index), Velvetleaf: foliage treatment, plants grown two weeks, 1,000 g active ingredient per hectare
In short: as §3

| SMILES | herbicidal effect, Scirpus juncoides Roxb. [1] | herbicidal effect, Echinochloa oryzicola Vasing [2] | herbicidal effect, Monochoria vaginalis (Burm. f.) C. Presl [3] | herbicidal effect (index), Barnyardgrass [4] | herbicidal effect (index), Green Foxtail [5] | herbicidal effect (index), Slender Amaranth [6] | herbicidal effect (index), Velvetleaf [7] | herbicidal effect, Barnyardgrass [8] | herbicidal effect, Green Foxtail [9] | herbicidal effect, Slender Amaranth [10] | herbicidal effect, Velvetleaf [11] | herbicidal effect (index), Barnyardgrass [8] | herbicidal effect (index), Green Foxtail [9] | herbicidal effect (index), Slender Amaranth [10] | herbicidal effect (index), Velvetleaf [11] |
| --- | --- | --- | --- | --- | --- | --- | --- | --- | --- | --- | --- | --- | --- | --- | --- |
| Cc1ccsc1-n1c(C(F)(F)F)ccc(C(=O)C2=C(O)CCCC2=O)c1=O [I-149] | 5 (90% or more of herbicidal effect and crop phytotoxicity) | 5 (90% or more of herbicidal effect and crop phytotoxicity) | 5 (90% or more of herbicidal effect and crop phytotoxicity) | 5 (90% or more of herbicidal effect and crop phytotoxicity) | 5 (90% or more of herbicidal effect and crop phytotoxicity) | 5 (90% or more of herbicidal effect and crop phytotoxicity) | 5 (90% or more of herbicidal effect and crop phytotoxicity) | 5 (90% or more of herbicidal effect and crop phytotoxicity) | 5 (90% or more of herbicidal effect and crop phytotoxicity) | 5 (90% or more of herbicidal effect and crop phytotoxicity) | 5 (90% or more of herbicidal effect and crop phytotoxicity) |  |  |  |  |
| C=CCSCn1c(C(F)(F)F)ccc(C(=O)C2=C(O)CCCC2=O)c1=O [I-63] | 5 (90% or more of herbicidal effect and crop phytotoxicity) | 5 (90% or more of herbicidal effect and crop phytotoxicity) | 5 (90% or more of herbicidal effect and crop phytotoxicity) | 5 (90% or more of herbicidal effect and crop phytotoxicity) | 4 (70 to less than 90% of herbicidal effect and crop phytotoxicity) | 5 (90% or more of herbicidal effect and crop phytotoxicity) | 5 (90% or more of herbicidal effect and crop phytotoxicity) |  |  |  |  | 5 (90% or more of herbicidal effect and crop phytotoxicity) | 5 (90% or more of herbicidal effect and crop phytotoxicity) | 5 (90% or more of herbicidal effect and crop phytotoxicity) | 5 (90% or more of herbicidal effect and crop phytotoxicity) |
| O=C1CCCC(O)=C1C(=O)c1ccc(C(F)(F)F)n(-c2cccc(F)c2)c1=O [I-92] | 5 (90% or more of herbicidal effect and crop phytotoxicity) | 5 (90% or more of herbicidal effect and crop phytotoxicity) | 5 (90% or more of herbicidal effect and crop phytotoxicity) | 5 (90% or more of herbicidal effect and crop phytotoxicity) | 5 (90% or more of herbicidal effect and crop phytotoxicity) | 5 (90% or more of herbicidal effect and crop phytotoxicity) | 5 (90% or more of herbicidal effect and crop phytotoxicity) |  |  |  |  | 5 (90% or more of herbicidal effect and crop phytotoxicity) | 5 (90% or more of herbicidal effect and crop phytotoxicity) | 5 (90% or more of herbicidal effect and crop phytotoxicity) | 5 (90% or more of herbicidal effect and crop phytotoxicity) |
| CCC(C)n1c(C(F)(F)F)ccc(C(=O)C2=C(O)CCCC2=O)c1=O (centres unmarked) [I-7] | 5 (90% or more of herbicidal effect and crop phytotoxicity) | 5 (90% or more of herbicidal effect and crop phytotoxicity) | 5 (90% or more of herbicidal effect and crop phytotoxicity) | 5 (90% or more of herbicidal effect and crop phytotoxicity) | 5 (90% or more of herbicidal effect and crop phytotoxicity) | 5 (90% or more of herbicidal effect and crop phytotoxicity) | 5 (90% or more of herbicidal effect and crop phytotoxicity) |  |  |  |  | 5 (90% or more of herbicidal effect and crop phytotoxicity) | 5 (90% or more of herbicidal effect and crop phytotoxicity) | 5 (90% or more of herbicidal effect and crop phytotoxicity) | 5 (90% or more of herbicidal effect and crop phytotoxicity) |
| Cc1cc(Cn2c(C(F)(F)F)ccc(C(=O)C3=C(O)CCCC3=O)c2=O)on1 [I-128] | 5 (90% or more of herbicidal effect and crop phytotoxicity) | 5 (90% or more of herbicidal effect and crop phytotoxicity) | 5 (90% or more of herbicidal effect and crop phytotoxicity) | 5 (90% or more of herbicidal effect and crop phytotoxicity) | 4 (70 to less than 90% of herbicidal effect and crop phytotoxicity) | 5 (90% or more of herbicidal effect and crop phytotoxicity) | 5 (90% or more of herbicidal effect and crop phytotoxicity) | 5 (90% or more of herbicidal effect and crop phytotoxicity) | 4 (70 to less than 90% of herbicidal effect and crop phytotoxicity) | 5 (90% or more of herbicidal effect and crop phytotoxicity) | 5 (90% or more of herbicidal effect and crop phytotoxicity) |  |  |  |  |
| COCCCn1c(C(F)(F)F)ccc(C(=O)c2cnn(C)c2O)c1=O [IV-47] | 5 (90% or more of herbicidal effect and crop phytotoxicity) | 5 (90% or more of herbicidal effect and crop phytotoxicity) | 5 (90% or more of herbicidal effect and crop phytotoxicity) | 4 (70 to less than 90% of herbicidal effect and crop phytotoxicity) | 5 (90% or more of herbicidal effect and crop phytotoxicity) | 5 (90% or more of herbicidal effect and crop phytotoxicity) | 5 (90% or more of herbicidal effect and crop phytotoxicity) | 4 (70 to less than 90% of herbicidal effect and crop phytotoxicity) | 5 (90% or more of herbicidal effect and crop phytotoxicity) | 5 (90% or more of herbicidal effect and crop phytotoxicity) | 5 (90% or more of herbicidal effect and crop phytotoxicity) |  |  |  |  |
| CC1(C)CCC(O)=C(C(=O)c2ccc(C(F)(F)F)n(-c3cc(F)cc(F)c3)c2=O)C1=O [II-40] | 5 (90% or more of herbicidal effect and crop phytotoxicity) | 5 (90% or more of herbicidal effect and crop phytotoxicity) | 5 (90% or more of herbicidal effect and crop phytotoxicity) | 5 (90% or more of herbicidal effect and crop phytotoxicity) | 5 (90% or more of herbicidal effect and crop phytotoxicity) | 5 (90% or more of herbicidal effect and crop phytotoxicity) | 5 (90% or more of herbicidal effect and crop phytotoxicity) | 5 (90% or more of herbicidal effect and crop phytotoxicity) | 4 (70 to less than 90% of herbicidal effect and crop phytotoxicity) | 5 (90% or more of herbicidal effect and crop phytotoxicity) | 5 (90% or more of herbicidal effect and crop phytotoxicity) |  |  |  |  |

Source: patent US8076487B2, “Pyridone derivative and herbicide” (Kumiai Chemical Industry Co., Ltd., priority 2006, dated 2011)
